Data published in US11684067B2, “Generation of peroxyformic acid through polyhydric alcohol formate” (priority 2014, dated 2023).
Several values for one entry are separate records, joined by “and”; a condition that tells them apart may be missing. Equal entries are not always repeated.

Assays:
[1] = system: Pseudomonas aeruginosa ATCC 15442; assay: Bactericidal activity of ester PFA versus POAA, EN 1276, dirty conditions; assay type: cell-based; details: 20°C
Source text: (§1) Additional Staphylococcus, Enterococcus and Pseudomonas pathogens were used to evaluate the micro efficacy of ester PFA generated according to methods of the present invention in comparison to POAA.

[2] = system: Enterococcus hirae ATCC 10541; assay: as above; assay type: cell-based; details: 20°C
Source text: as §1

[3] = system: Staphylococcus aureus ATCC 6538; assay: as above; assay type: cell-based; details: 20°C
Source text: as §1

[4] = Laundry disinfection efficacy, EPA protocol on 100% cotton carriers (Table 38); assay type: cell-based; details: 42 ppm, pH 7.7, 500 ppm hard water, 40° C., 5 minute exposure, vs water control
Description: The microbial efficacy of peroxyformic acid was also tested following the EPA protocol on 100% cotton carriers against a water control. The test conditions were pH 7.7, 500 ppm hard water, 40° C. and 5 minute exposure time. In comparison, the performance of peracetic acid was also tested under the same conditions.

[5] = system: Bacillus subitilisATCC 19659; assay: Sporicidal activity of ester PFA versus POAA (Example 23); assay type: cell-based, Bacillus subtilis; details: 20°C, dirty
Source text: Additional Bacillus pathogens were used to evaluate the micro efficacy of ester PFA generated according to methods of the present invention in comparison to POAA.

[6] = system: Nalidixic acid resistant E. coli O157:H7; assay: Reduction of E. coli on raw beef brisket, dip treatment; assay type: cell-based; details: 10 minutes dip, ambient, 220 ppm POAA / 180 ppm PFA / 50 ppm LAS per formula (Table 15)
Description: Nalidixic acid resistant E. coli O157:H7 was used to evaluate the efficacy in treatment with performic acid composition on raw beef brisket according to the conditions shown in Table 14.
The generation of PFA from the perhydrolysis of glycerol formates, PFA formulations, POAA formations and controls were evaluated as shown in Table 15.

[7] = system: pseudomonas; assay: Suspension test in cooling tower water samples; assay type: cell-based; details: 10 minutes
Description: The antimicrobial efficacy of peroxyformic acid generated through the perhydrolysis of glycerol formatted were tested against pseudomonas in cooling tower samples at both 25° C. and 37° C., along with the peroxyacetic acid (POAA) controls, and the results are summarized in Table 6 and 7 below.

[8] = system: Aspergillus brasiliensis ATCC 16404; assay: Fungicidal/yeasticidal activity of ester PFA versus POAA (Example 22); assay type: cell-based; details: 20°C, dirty
Source text: (§2) Canidia and Aspergillus pathogens were used to evaluate the micro efficacy of ester PFA generated according to methods of the present invention in comparison to POAA.

[9] = system: Candida albicans ATCC 10231; assay: as above; assay type: cell-based; details: 20°C, dirty
Source text: as §2

[10] = system: Bacillus subitilisATCC 19659; assay: Sporicidal activity of ester PFA versus POAA (Example 21); assay type: cell-based, Bacillus subtilis; details: 20°C, dirty
Source text: Bacillus pathogens were used to evaluate the micro efficacy of ester PFA generated according to methods of the present invention in comparison to POAA.

[11] = Physical properties (hygroscopicity, water solubility) of formate esters prepared; assay type: physicochemical; details: hexaformates: at room temperature
[12] = 20 ppm PFA pH 6.61 / 24.8 ppm POAA pH 6.73, 5 minutes
[13] = 30 ppm PFA pH 6.74 / 37.6 ppm POAA pH 6.90, 5 minutes
[14] = 50 ppm PFA pH 6.60 / 62.4 ppm POAA pH 6.98, 5 minutes
[15] = 300 ppm PFA pH 6.73 / 368 ppm POAA pH 6.88, 5 minutes
[16] = 300 ppm PFA pH 6.73 / 368 ppm POAA pH 6.88, 10 minutes
[17] = 400 ppm PFA pH 6.95 / 490 ppm POAA pH 6.65, 5 minutes
[18] = 400 ppm PFA pH 6.95 / 490 ppm POAA pH 6.65, 10 minutes
[19] = BP Cooling Water pH 8.74, 5 ppm Ester PFA / 6.13 ppm POAA, 25°C
[20] = BP Cooling Water pH 8.74, 5 ppm Ester PFA / 6.13 ppm POAA, 37°C
[21] = BP Cooling Water pH 8.74, 12.3 ppm POAA, 25°C
[22] = BP Cooling Water pH 8.74, 12.3 ppm POAA, 37°C
[23] = Peninsula Cooling Water pH 8.81, 5 ppm Ester PFA / 6.13 ppm POAA, 25°C
[24] = Peninsula Cooling Water pH 8.81, 5 ppm Ester PFA / 6.13 ppm POAA, 37°C
[25] = Peninsula Cooling Water pH 8.81, 12.3 ppm POAA, 25°C
[26] = Peninsula Cooling Water pH 8.81, 12.3 ppm POAA, 37°C
[27] = 200 ppm PFA pH 6.15 / 245 ppm POAA pH 6.56, 5 minutes
[28] = 200 ppm PFA pH 6.15 / 245 ppm POAA pH 6.56, 10 minutes
[29] = 200 ppm PFA pH 6.15 / 245 ppm POAA pH 6.56, 15 minutes
[30] = 300 ppm PFA pH 6.21 / 368 ppm POAA pH 6.63, 5 minutes
[31] = 300 ppm PFA pH 6.21 / 368 ppm POAA pH 6.63, 10 minutes
[32] = 300 ppm PFA pH 6.84 / 368 ppm POAA pH 6.73 (molar equivalent), 5 minutes
[33] = 300 ppm PFA pH 6.84 / 368 ppm POAA pH 6.73 (molar equivalent), 10 minutes
[34] = 400 ppm PFA pH 7.19 / 490 ppm POAA pH 6.78 (molar equivalent), 5 minutes
[35] = 400 ppm PFA pH 7.19 / 490 ppm POAA pH 6.78 (molar equivalent), 10 minutes

With CC(=O)OO [POAA, peroxyacetic acid, reference compound] the “Average CFU/mL” value [1, 12] was <140 CFU/mL, the “Log10 Growth” value [1, 12] was <2.15 Log10 and the “Average CFU/mL” value [1, 13] was <140 CFU/mL. For the same molecule, the “Log10 Growth” value [1, 13] was <2.15 Log10, the “Average CFU/mL” value [1, 14] was <140 CFU/mL and the “Log10 Growth” value [1, 14] was <2.15 Log10. For the same molecule, the “Average CFU/mL” value [2, 12] was >3.30E + 05 CFU/mL, the “Log10 Growth” value [2, 12] was >5.52 Log10 and the “Average CFU/mL” value [2, 13] was 9.25E + 03 CFU/mL. For the same molecule, the “Log10 Growth” value [2, 13] was 3.97 Log10, the “Average CFU/mL” value [2, 14] was <140 CFU/mL and the “Log10 Growth” value [2, 14] was <2.15 Log10. For the same molecule, the “Average CFU/mL” value [3, 12] was 1.77E + 05 CFU/mL, the “Log10 Growth” value [3, 12] was 5.25 Log10 and the “Average CFU/mL” value [3, 13] was <140 CFU/mL. The “Log10 Growth” value [3, 13] was <2.15 Log10, the “Average CFU/mL” value [3, 14] was <140 CFU/mL and the “Log10 Growth” value [3, 14] was <2.15 Log10. The Log reduction ([4]; Klebsiella pneumoniae ATCC 4352) was 2.46, the Log reduction ([4]; Staphylococcus aureus ATCC 6538) was >5.85 and the “Average CFU/mL” value [5, 15] was >3.0E+06 CFU/mL. For the same molecule, the “Log10 Growth” value [5, 15] was >6.48 Log10, the “Log10 Reduction” value [5, 15] was <1.26 Log10 and the “Average CFU/mL” value [5, 16] was >3.0E+05 CFU/mL. For the same molecule, the “Log10 Growth” value [5, 16] was >5.48 Log10, the “Log10 Reduction” value [5, 16] was <2.26 Log10 and the “Average CFU/mL” value [5, 17] was >3.0E+06 CFU/mL. For the same molecule, the “Log10 Growth” value [5, 17] was >6.48 Log10, the “Log10 Reduction” value [5, 17] was <1.26 Log10 and the “Average CFU/mL” value [5, 18] was >3.0E+05 CFU/mL. The “Log10 Growth” value [5, 18] was >5.48 Log10, the “Log10 Reduction” value [5, 18] was <2.26 Log10 and the “Average Log CFU/cm2” value [6] was 2.98 Log CFU/cm2. The “Log reduction” value [6] was 1.06 Log, the CFU/cm2 ([6]; single samples) was 1.20E+03 CFU/cm2 and 9.00E+02 CFU/cm2 and 8.00E+02 CFU/cm2 and the CFU/ml ([6]; single samples) was 6.00E+02 CFU/ml and 4.50E+02 CFU/ml and 4.00E+02 CFU/ml. For the same molecule, the “Log CFU/cm2” value ([6]; single samples) was 3.08 Log CFU/cm2 and 2.95 Log CFU/cm2 and 2.90 Log CFU/cm2, the “Avg. Log10 Growth” value [7, 19] was 4.10 Log10 and the “Log10 Reduction” value [7, 19] was 1.57 Log10. For the same molecule, the “Avg. Log10 Growth” value [7, 20] was 2.84 Log10, the “Log10 Reduction” value [7, 20] was 2.26 Log10 and the “Avg. Log10 Growth” value [7, 21] was 3.26 Log10. The “Log10 Reduction” value [7, 21] was 2.41 Log10, the “Avg. Log10 Growth” value [7, 22] was 2.73 Log10 and the “Log10 Reduction” value [7, 22] was 2.37 Log10. The “Avg. Log10 Growth” value [7, 23] was 3.81 Log10, the “Log10 Reduction” value [7, 23] was 1.37 Log10 and the “Avg. Log10 Growth” value [7, 24] was 2.76 Log10. The “Log10 Reduction” value [7, 24] was 2.34 Log10, the “Avg. Log10 Growth” value [7, 25] was 3.30 Log10 and the “Log10 Reduction” value [7, 25] was 1.88 Log10. The “Avg. Log10 Growth” value [7, 26] was 3.20 Log10, the “Log10 Reduction” value [7, 26] was 1.90 Log10 and the “Average CFU/mL” value [8, 27] was >1.65E+05 CFU/mL. The “Log10 Growth” value [8, 27] was >5.22 Log10, the “Log10 Reduction” value [8, 27] was <0.53 Log10 and the “Average CFU/mL” value [8, 28] was >1.65E+05 CFU/mL. The “Log10 Growth” value [8, 28] was >5.22 Log10, the “Log10 Reduction” value [8, 28] was <0.53 Log10 and the “Average CFU/mL” value [8, 29] was >1.65E+05 CFU/mL. The “Log10 Growth” value [8, 29] was >5.22 Log10, the “Log10 Reduction” value [8, 29] was <0.53 Log10 and the “Average CFU/mL” value [8, 30] was >1.65E+05 CFU/mL. For the same molecule, the “Log10 Growth” value [8, 30] was >5.22 Log10, the “Log10 Reduction” value [8, 30] was <0.53 Log10 and the “Average CFU/mL” value [8, 31] was >1.65E+05 CFU/mL. The “Log10 Growth” value [8, 31] was >5.22 Log10, the “Log10 Reduction” value [8, 31] was <0.53 Log10 and the “Average CFU/mL” value [9, 27] was <140 CFU/mL. The “Log10 Growth” value [9, 27] was <2.15 Log10, the “Log10 Reduction” value [9, 27] was >4.14 Log10 and the “Average CFU/mL” value [9, 28] was <140 CFU/mL. The “Log10 Growth” value [9, 28] was <2.15 Log10, the “Log10 Reduction” value [9, 28] was >4.14 Log10 and the “Average CFU/mL” value [9, 29] was <140 CFU/mL. The “Log10 Growth” value [9, 29] was <2.15 Log10, the “Log10 Reduction” value [9, 29] was >4.14 Log10 and the “Average CFU/mL” value [9, 30] was <140 CFU/mL. The “Log10 Growth” value [9, 30] was <2.15 Log10, the “Log10 Reduction” value [9, 30] was >4.14 Log10 and the “Average CFU/mL” value [9, 31] was <140 CFU/mL. For the same molecule, the “Log10 Growth” value [9, 31] was <2.15 Log10, the “Log10 Reduction” value [9, 31] was >4.14 Log10 and the “Average CFU/mL” value [10, 32] was 7.50E+05 CFU/mL. For the same molecule, the “Log10 Growth” value [10, 32] was 5.88 Log10, the “Log10 Reduction” value [10, 32] was 0.00 Log10 and the “Average CFU/mL” value [10, 33] was 5.00E+05 CFU/mL. The “Log10 Growth” value [10, 33] was 5.70 Log10, the “Log10 Reduction” value [10, 33] was 0.00 Log10 and the “Average CFU/mL” value [10, 34] was 8.50E+05 CFU/mL. The “Log10 Growth” value [10, 34] was 5.93 Log10, the “Log10 Reduction” value [10, 34] was 0.00 Log10 and the “Average CFU/mL” value [10, 35] was 4.00E+05 CFU/mL. The “Log10 Growth” value [10, 35] was 5.60 Log10 and the “Log10 Reduction” value [10, 35] was 0.19 Log10.

With O=COC[C@@H](OC=O)[C@@H](OC=O)[C@H](OC=O)[C@@H](COC=O)OC=O [Mannitol Hexaformates] the “solubility in water of the isolated solid” value [11] was “marginally soluble in water”.
